System: Gamt−/− mice
Assay: (18F)-FDG PET brain glucose uptake
Format: in vivo, mouse
Settings: Gamt-deficient mice; sequence regular chow (5.24±0.76), oral creatine supplementation, then AAV (regular chow only)
Excerpt: Considering the importance of the creatine/phosphocreatine shuttle to cells with high-energy expenditures, we examined the uptake of glucose to the brain in Gamt-deficient mice. Fluorodeoxyglucose (18(F)-FDG)-positron-emission tomography (PET) is a well-established non-invasive imaging tool for monitoring changes in cerebral brain glucose metabolism in vivo. To examine restoration of hepatic Gamt and its effect as a treatment strategy in GAMT deficiency, we sought to examine the brain of this preclinical model. By measuring cerebral glucose metabolism with (18F)-FDG-PET we can detect neuronal dysfunction in vivo as brain glucose metabolism is determined by synaptic activity mainly in order to restore membrane potentials (26). To semi-quantitate tissue activity, we determined the activity divided by the decay-corrected activity injected into the mouse; this ratio is defined as the percent-injected dose per cubic centimeter in tissue (% ID/cc). […]
We evaluated if there was a substantial improvement in brain metabolism with restoration of GAMT activity in hepatocytes with a gene therapy approach and compared this to present day therapy with oral creatine supplementation. […]
Animals were anesthetized with 1.5% vaporized isoflurane, and injected with (18F)-FDG via tail vein. […] Co-registered PET/CT data were analyzed and quantified using AMIDE software. […]

For `CN(CC(=O)O)C(=N)N` [creatine], the “Brain (18F)-FDG uptake, each mouse its own control” value was 5.26±1.10 % ID/cc.

From patent publication US20240016894A1, “METHODS AND MATERIALS FOR AMELIORATING CREATINE DEFICIENCY DISORDERS” (The Regents of the University of California, priority 2022, published 2024)
